Earlier results in patent US7700798B1, “Erogorgiaene congeners and methods and intermediates useful in the preparation of same” (The Research Foundation of State University of New York, priority 2005, dated 2010).

Conditions: literature statement, comparison with the commercially used natural products

**Q.** With Elisabethadione as the substance, how does the “anti-inflammatory potency compared with the pseudopterosins” value read?
**A.** The value was “more potent than the related and commercially used natural products, the pseudopterosins”.
